Assays:
mdx mice = assay: Morbidity, muscle mass, muscle function, plethysmography, echocardiography, mdx mice, 40 weeks; type: in vivo, mouse; conditions: weekly prednisone
Method: (§1) Histology. Excised tissues (muscles, omental fat, heart) were placed in 10% formaldehyde (Cat #245-684; Fisher Scientific, Waltham, Mass.) for histologic processing. Seven μm sections from the center of paraffin-embedded muscles were stained with hematoxylin and eosin (H&E; cat #12013B, 1070C; Newcomer Supply, Middleton, Wis.) and Masson's trichrome (Cat #HT-15; Sigma-Aldrich; St. Louis, Mo.). Myofiber/adipocyte CSA quantitation was conducted on 400 myofibers/adipocytes per tissue per mouse. Imaging was performed using a Zeiss Axio Observer A1 microscope, using 10× and 20× (short-range) objectives. Brightfield pictures were acquired via Gryphax software (version 1.0.6.598; Jenoptik, Jena, Germany). Area quantitation was performed by means of ImageJ (Schneider et al., 2012). Sample processing, imaging and CSA quantitation were conducted blinded to treatment groups.
(§2) Muscle function, whole-body plethysmography, echocardiography. Forelimb grip strength was monitored using a meter (Cat #1027SM; Columbus Instruments, Columbus, Ohio) blinded to treatment groups. Animals performed ten pulls with 5 seconds rest on a flat surface between pulls. Immediately before sacrifice, in situ tetanic force from tibialis anterior muscle was measured using a Whole Mouse Test System (Cat #1300A; Aurora Scientific, Aurora, ON, Canada) with a 1N dual-action lever arm force transducer (3000-LR, Aurora Scientific, Aurora, ON, Canada) in anesthetized animals (0.8 I/min of 1.5% isoflurane in 100% O2). […] Time of contraction was assessed as time to max tetanic value within the 0.0-0.5 sec range of each tetanic contraction, while time of relaxation was assessed as time to 90% min tetanic value within the 0.5-0.8 sec range of every tetanus. […] Data was recorded for a total of 15 minutes broken into 3 consecutive 5-minute periods. […] Cardiac function was assessed by echocardiography, which was conducted under anesthesia (0.8 L/min of 1.5% vaporized isoflurane in 100% O2) on mice between 2 and 5 days before sacrifice. […]

Dysf-null mice = assay: Body weight, muscle mass, muscle function, plethysmography, echocardiography, Dysf-null mice, 32 weeks; type: in vivo, mouse; conditions: weekly prednisone
Method: as §1, §2

## C[C@]12C=CC(=O)C=C1CC[C@@H]1[C@@H]2C(=O)C[C@@]2(C)[C@H]1CC[C@]2(O)C(=O)CO [prednisone, Prednisone]
Mdx mice; mdx male mice, 40 weeks from 6 weeks of age
  morbidity: improved
Mdx mice; mdx mice, 40 weeks
  muscle mass and force: increased
  performance of limb muscles, respiratory muscles, and heart: improved
Dysf-null mice
  body weight trend: did not induce significant changes
  muscle mass: increased
  performance of limb muscles, respiratory muscles, and heart: improved

— patent US20220062299A1, “USE OF GLUCOCORTICOID STEROIDS IN PREVENTING AND TREATING CONDITIONS OF MUSCLE WASTING, AGING AND METABOLIC DISORDER” (NORTHWESTERN UNIVERSITY, priority 2018, published 2022)
